Assay results from US20190359653A1, “SELECTIVE PEPTIDE INHIBITORS OF FRIZZLED” (Genentech, Inc., priority 2016, published 2019).

Tests used:
[1] = system: intestinal organoid samples; test: RNA sequencing of intestinal organoids; assay type: cell-based, mouse; conditions: 6 and 24 h
Description: RNA-Seq libraries were prepared using TruSeq RNA Sample Preparation kit (Illumina, CA). The libraries were sequenced on Illumina HiSeq 2500 sequencers to obtain on average 34 million single-end reads (50 bp) per sample. RNAseq reads were first aligned to ribosomal RNA sequences to remove ribosomal reads. The remaining reads were aligned to the mouse reference genome (NCBI Build 38) using GSNAP (version 2013-10-10) (Wu, T. D. & Nacu, S. Fast and SNP-tolerant detection of complex variants and splicing in short reads. Bioinformatics 26, 873-881 (2010)) allowing a maximum of two mismatches per 50 base sequence (parameters: ‘-M 2-n 10-B 2-i 1-N 1-w 200000-E 1-pairmax-rna=200000-clip-overlap’). Transcript annotation was based on the RefSeq database (NCBI Annotation Release 104). To quantify gene expression levels, the number of reads mapped to the exons of each RefSeq gene was calculated. Read counts were scaled by library size, quantile normalized and precision weights calculated using the “voom” R package (Law, C. W., Chen, Y., Shi, W. & Smyth, G. K. voom: precision weights unlock linear model analysis tools for RNA-seq read counts. Genome Biology 15, R29 (2014)). […] In addition, gene expression was obtained in form of normalized Reads Per Kilobase gene model per Million total reads (nRPKM) as described earlier (Srinivasan, K. et al. Untangling the brain's neuroinflammatory and neurodegenerative transcriptional responses. Nat Commun 7, 11295 (2016)). […]
We performed Quantitative Set Analysis for Gene Expression (QuSAGE) (Yaari, G., Bolen, C. R., Thakar, J. & Kleinstein, S. H. Quantitative set analysis for gene expression: a method to quantify gene set differential expression including gene-gene correlations. Nucleic Acids Research 41, e170-e170 (2013)) to identify relevant biological processes associated with Wnt inhibition. […]

[2] = system: mouse intestinal organoids; test: RT-PCR of stem cell and Wnt transcripts in organoids; assay type: cell-based; conditions: for ISC markers Lgr5 and Ascl2: FIGS. 19A, 19B
Description: Mouse organoids were established from isolated crypts collected from the entire length of the small intestine and maintained as previously described (Sato et al. (2009) Nature 459, 262-265 (2009). All mouse derived tissue was performed according to the animal use guidelines of Genentech, a Member of the Roche Group, and the Institutional Animal Care and Use Committee, conforming to California State legal and ethical practices. Mouse sex was not selected for. Organoids were passaged at least twice per week and grown using IntestiCult Organoid growth media (cat. no. 06005; StemCell Technologies). Peptides were suspended in DMSO and dissolved in media to 1% DMSO final concentration, then added to organoids to initiate drug treatment. Antibodies were added to 10 μg/ml concentration. Organoids were imaged using a Nikon Eclipse Ti scope with a Nikon Plan Fluor 10×Ph1 DLL objective using an Andor Neo camera (1×1 binning; 200 ms exposure) and acquired using NIS Elements (v 4.50 64-bit; Nikon). APC^min organoids were generated as previously described (Melo, F.d.S.e. et al. A distinct role for Lgr5+ stem cells in primary and metastatic colon cancer. Nature 543, 676-680 (2017)). For organoids treated with CHIR99021 (5 μM; Stemcell Technologies) organoids were split and treated with DMSO or CHIR99021 (5 μM) for 24 hr. prior to the addition of peptide or DMSO for 24 hr.
RNA from organoid samples was isolated using the RNeasy Micro kit (cat. no. 74004; Qiagen) according to the manufacturer's instructions. Mouse small intestine RNA was collected using the RNeasy Mini Kit (cat. no. 74104; Qiagen). qRT-PCR was performed in 10 μL reactions with 50 ng total RNA using One-step Real-time RT-PCR mastermix (cat. no. 4392938; Life Technologies) according to the manufacturer's instructions. Taqman probes from Life Technologies were used: Actb (Mm01205647_g1); Lgr5 (Mm01251801_m1); Axin2 (Mm00443610_m1); Ascl2 (Mm01268891_g1); Olfm4 (Mm01320260_m1); Muc2 (Mm01276696_m1); ACTB(Hs99999903_m1); ACTB(Mm00607939_s1); GAPDH (Mm99999915_g1); and GAPDH(Hs03929097_g1). RT-PCR reactions were run using a 7900HT Fast Real-Time PCR system (ABI) at the following thermal cycling conditions: Holding step of 30 min at 48° C., followed by a holding step of 10 min at 95° C., and 40 cycles of 10 sec at 95° C. and 1 min at 60° C. Values were normalized to actin transcript levels and then normalized to control as described in the figure legend.
Treatment with Fz7-21S had no effect. […] The effects of dFz7-21 on both ISC potential and stem cell transcripts were similar to a control anti-Lrp6 antibody (i.e., a general inhibitor of Wnt signaling).

[3] = system: Wnt3a-stimulated β-catenin signaling in HEK293-TB cells; test: luciferase reporter assay, HEK293-TB cells transfected with pCDNA3.2-Wnt3a; assay type: cell-based

| Sequence | enterocyte markers [1] | expression of markers of Lgr5+ ISCs and reserve ISCs [1] | Muc2 ([2]; 24 and 48 h treatment) | ISC markers Lgr5 and Ascl2 ([2]; 24 and 48 h treatment) | Axin2 ([2]; FIG. 19C) | inhibition of Wnt3a signaling [3] |
| --- | --- | --- | --- | --- | --- | --- |
| LPSDDLEFWCHVMY [dFz7-21] | up-regulation | substantial down-regulation | upregulated | significantly down regulated | significantly reduced | – |
| LPSDDLEFWSHVMY [Fz7-21S, negative control] | – | Little or no change in gene expression | – | had no effect | – | not found to inhibit |
